Laboratory results taken from patent US10344060B2 (priority 2013, dated 2019).
Like-named read-outs stand apart in the source and are kept apart here.

What was measured:
Experiment in all cases: cell-based
hNav1.7 = hNav1.7 (Homo sapiens, UniProt Q15858); conditions: read-out: IC50 (μM) Nav1.7
hNav1.5 = hNav1.5 (Homo sapiens, UniProt Q14524); conditions: IonWorks Quattro, read-out: IC50 (μM) Nav1.5
hNav1.4 = hNav1.4 (Homo sapiens, UniProt P35499); type: cell-based; conditions: for IC50: IonWorks Quattro, read-out: IC50 (μM) Nav1.4; for Nav1.4/Nav1.7: ratio of IonWorks Quattro IC50 values
hNav1.3 = hNav1.3 (Homo sapiens, UniProt Q9NY46); conditions: IonWorks Quattro, read-out: IC50 (μM) Nav1.3

hNav1.7, sequence (Q15858 whole entry): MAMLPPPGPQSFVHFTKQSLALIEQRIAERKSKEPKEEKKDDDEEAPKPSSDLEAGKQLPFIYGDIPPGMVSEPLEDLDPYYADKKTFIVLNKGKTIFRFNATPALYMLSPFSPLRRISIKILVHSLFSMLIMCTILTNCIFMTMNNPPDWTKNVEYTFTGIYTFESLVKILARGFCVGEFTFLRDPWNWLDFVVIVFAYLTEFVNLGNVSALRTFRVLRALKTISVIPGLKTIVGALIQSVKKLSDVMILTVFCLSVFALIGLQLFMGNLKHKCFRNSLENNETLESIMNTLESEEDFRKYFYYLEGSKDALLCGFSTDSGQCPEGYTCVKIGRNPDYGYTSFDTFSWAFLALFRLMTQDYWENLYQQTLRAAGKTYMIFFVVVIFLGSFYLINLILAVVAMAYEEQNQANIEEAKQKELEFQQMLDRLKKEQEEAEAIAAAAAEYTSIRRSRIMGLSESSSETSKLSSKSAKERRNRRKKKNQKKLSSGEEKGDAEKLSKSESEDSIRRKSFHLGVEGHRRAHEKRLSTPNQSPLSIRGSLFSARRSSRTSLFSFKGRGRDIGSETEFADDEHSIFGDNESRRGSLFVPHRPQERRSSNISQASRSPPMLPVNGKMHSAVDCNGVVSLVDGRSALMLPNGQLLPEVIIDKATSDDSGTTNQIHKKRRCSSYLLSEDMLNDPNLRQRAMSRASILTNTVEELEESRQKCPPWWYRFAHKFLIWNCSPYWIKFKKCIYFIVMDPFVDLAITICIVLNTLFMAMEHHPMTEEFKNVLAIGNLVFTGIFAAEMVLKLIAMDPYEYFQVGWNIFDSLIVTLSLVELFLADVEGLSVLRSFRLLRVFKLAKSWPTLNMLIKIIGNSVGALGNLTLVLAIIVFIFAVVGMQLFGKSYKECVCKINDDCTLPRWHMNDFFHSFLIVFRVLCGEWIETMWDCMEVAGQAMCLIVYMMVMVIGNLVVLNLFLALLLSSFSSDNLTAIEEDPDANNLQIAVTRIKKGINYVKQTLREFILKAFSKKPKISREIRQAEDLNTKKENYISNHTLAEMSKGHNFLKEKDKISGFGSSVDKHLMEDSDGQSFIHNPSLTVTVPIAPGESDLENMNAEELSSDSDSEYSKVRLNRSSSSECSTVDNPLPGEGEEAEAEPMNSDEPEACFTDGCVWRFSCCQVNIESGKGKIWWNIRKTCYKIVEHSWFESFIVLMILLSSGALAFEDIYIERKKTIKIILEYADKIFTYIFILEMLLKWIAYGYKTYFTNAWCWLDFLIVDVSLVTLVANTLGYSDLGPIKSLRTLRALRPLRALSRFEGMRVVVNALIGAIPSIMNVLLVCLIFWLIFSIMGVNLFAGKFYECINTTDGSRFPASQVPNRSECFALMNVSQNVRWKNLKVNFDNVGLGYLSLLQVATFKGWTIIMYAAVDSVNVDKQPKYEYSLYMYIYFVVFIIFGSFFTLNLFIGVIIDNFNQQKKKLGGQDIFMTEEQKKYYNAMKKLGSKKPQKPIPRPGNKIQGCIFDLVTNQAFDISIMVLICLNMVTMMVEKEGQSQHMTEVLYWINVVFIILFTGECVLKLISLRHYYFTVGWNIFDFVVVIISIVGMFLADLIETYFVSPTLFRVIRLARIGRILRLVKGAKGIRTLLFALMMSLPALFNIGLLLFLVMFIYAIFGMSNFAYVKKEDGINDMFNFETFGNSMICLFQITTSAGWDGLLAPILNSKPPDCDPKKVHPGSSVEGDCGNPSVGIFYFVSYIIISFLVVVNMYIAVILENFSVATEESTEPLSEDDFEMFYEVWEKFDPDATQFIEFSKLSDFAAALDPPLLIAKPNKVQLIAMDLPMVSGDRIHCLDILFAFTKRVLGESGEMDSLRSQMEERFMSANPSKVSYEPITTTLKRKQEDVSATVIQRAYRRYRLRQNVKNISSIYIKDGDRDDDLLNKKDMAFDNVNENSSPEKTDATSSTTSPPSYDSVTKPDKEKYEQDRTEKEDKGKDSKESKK
hNav1.4, sequence (P35499 whole entry): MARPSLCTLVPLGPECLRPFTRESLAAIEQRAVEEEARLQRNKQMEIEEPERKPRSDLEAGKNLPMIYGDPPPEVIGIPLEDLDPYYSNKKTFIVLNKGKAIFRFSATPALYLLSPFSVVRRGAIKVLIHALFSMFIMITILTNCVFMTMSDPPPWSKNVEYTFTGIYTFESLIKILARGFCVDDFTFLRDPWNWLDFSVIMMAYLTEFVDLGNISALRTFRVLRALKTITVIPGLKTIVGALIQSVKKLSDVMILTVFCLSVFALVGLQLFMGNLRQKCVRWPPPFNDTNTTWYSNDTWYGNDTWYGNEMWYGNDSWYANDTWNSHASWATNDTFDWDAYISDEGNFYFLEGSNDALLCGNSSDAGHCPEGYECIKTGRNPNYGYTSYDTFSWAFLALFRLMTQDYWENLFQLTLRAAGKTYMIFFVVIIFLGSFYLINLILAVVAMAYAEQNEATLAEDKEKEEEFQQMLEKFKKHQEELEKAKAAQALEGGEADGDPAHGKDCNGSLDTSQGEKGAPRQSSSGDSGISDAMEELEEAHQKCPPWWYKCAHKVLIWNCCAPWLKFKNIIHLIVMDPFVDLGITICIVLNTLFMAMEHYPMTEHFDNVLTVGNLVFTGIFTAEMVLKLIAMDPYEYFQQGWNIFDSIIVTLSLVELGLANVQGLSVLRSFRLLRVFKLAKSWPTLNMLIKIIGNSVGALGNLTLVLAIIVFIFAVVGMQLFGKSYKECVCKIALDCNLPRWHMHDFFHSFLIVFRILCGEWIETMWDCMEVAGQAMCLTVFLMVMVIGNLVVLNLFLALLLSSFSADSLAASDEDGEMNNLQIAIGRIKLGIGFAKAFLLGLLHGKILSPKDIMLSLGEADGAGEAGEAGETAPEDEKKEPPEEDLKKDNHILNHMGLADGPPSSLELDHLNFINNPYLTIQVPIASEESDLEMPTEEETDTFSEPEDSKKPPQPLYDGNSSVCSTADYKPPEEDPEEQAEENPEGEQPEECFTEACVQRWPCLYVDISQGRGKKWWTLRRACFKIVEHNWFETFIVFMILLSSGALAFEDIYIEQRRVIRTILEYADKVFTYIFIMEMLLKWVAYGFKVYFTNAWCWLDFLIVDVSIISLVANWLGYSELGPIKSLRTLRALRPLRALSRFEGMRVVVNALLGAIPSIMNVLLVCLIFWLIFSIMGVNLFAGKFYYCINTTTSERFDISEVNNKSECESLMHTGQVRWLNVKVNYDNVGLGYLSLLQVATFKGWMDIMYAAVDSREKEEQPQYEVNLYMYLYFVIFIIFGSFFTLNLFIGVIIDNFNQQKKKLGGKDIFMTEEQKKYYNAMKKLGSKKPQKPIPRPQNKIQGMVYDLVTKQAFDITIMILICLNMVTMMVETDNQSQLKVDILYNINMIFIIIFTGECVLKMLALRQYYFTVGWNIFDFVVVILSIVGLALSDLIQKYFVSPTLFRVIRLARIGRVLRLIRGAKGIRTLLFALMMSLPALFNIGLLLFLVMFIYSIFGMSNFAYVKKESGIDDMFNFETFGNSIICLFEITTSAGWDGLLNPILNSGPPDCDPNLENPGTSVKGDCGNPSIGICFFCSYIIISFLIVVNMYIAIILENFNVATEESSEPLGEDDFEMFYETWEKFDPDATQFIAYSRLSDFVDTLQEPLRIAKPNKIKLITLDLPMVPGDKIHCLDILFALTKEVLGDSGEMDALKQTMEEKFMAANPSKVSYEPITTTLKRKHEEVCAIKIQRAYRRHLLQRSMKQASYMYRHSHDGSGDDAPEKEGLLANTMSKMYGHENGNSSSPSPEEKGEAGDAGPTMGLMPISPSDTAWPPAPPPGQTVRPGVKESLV

| SMILES | IC50 (hNav1.7) [µM] | IC50 (hNav1.5; Table 6) [µM] | IC50 (hNav1.4; Table 6) [µM] | Nav1.4/Nav1.7 (hNav1.4; Table 6) | IC50 (hNav1.3; Table 6) [µM] | IC50 (hNav1.7; IonWorks Quattro, […]) [µM] | IC50 (hNav1.5; Table 9) [µM] | IC50 (hNav1.4; Table 9) [µM] | IC50 (hNav1.3; Table 9) [µM] |
| --- | --- | --- | --- | --- | --- | --- | --- | --- | --- |
| CC[C@H](C)[C@H](NC(=O)[C@@H](NC(=O)[C@H](CCCCN)NC(=O)[C@H](CCCNC(=N)N)NC(=O)[C@@H]1CSSC[C@@H]2NC(=O)[C@H](C)NC(=O)[C@H](CCCNC(=N)N)NC(=O)[C@H](CCCCN)NC(=O)[C@H](CO)NC(=O)[C@H](CC(=O)O)NC(=O)[C@@H]3CSSC[C@H](NC(=O)[C@H](CCCCN)NC(=O)[C@H](CC(C)C)NC(=O)CNC(=O)[C@H](CCC(=O)O)NC(=O)[C@H](CSSC[C@H](NC(=O)[C@@H](N)Cc4ccc(O)cc4)C(=O)N[C@@H](CCC(N)=O)C(=O)N[C@@H](CCCCN)C(=O)N[C@@H](Cc4c[nH]c5ccccc45)C(=O)N[C@@H](CCSC)C(=O)N[C@@H](Cc4c[nH]c5ccccc45)C(=O)N[C@@H]([C@@H](C)O)C(=O)N3)NC2=O)C(=O)N[C@@H](CCCCN)C(=O)N[C@@H](CC(C)C)C(=O)N[C@@H](Cc2c[nH]c3ccccc23)C(=O)N1)[C@@H](C)CC)C(N)=O [compound 84] | 0.02 | 3.4 | 0.26 | 13 | 0.06 |  |  |  |  |
| CC[C@H](C)[C@H](NC(=O)[C@@H](NC(=O)[C@H](CCCCN)NC(=O)[C@H](CCCNC(=N)N)NC(=O)[C@@H]1CSSC[C@@H]2NC(=O)[C@H](C)NC(=O)[C@H](CCCNC(=N)N)NC(=O)[C@H](CCCCN)NC(=O)[C@H](CO)NC(=O)[C@H](CC(=O)O)NC(=O)[C@@H]3CSSC[C@H](NC(=O)[C@H](CCCNC(=N)N)NC(=O)[C@H](CC(C)C)NC(=O)CNC(=O)[C@H](CCC(=O)O)NC(=O)[C@H](CSSC[C@H](NC(=O)[C@@H](N)CCCCN)C(=O)N[C@@H](CCC(N)=O)C(=O)N[C@@H](CCCCN)C(=O)N[C@@H](Cc4c[nH]c5ccccc45)C(=O)N[C@@H](CCSC)C(=O)N[C@@H](Cc4c[nH]c5ccccc45)C(=O)N[C@@H]([C@@H](C)O)C(=O)N3)NC2=O)C(=O)N[C@@H](CCCCN)C(=O)N[C@@H](CC(C)C)C(=O)N[C@@H](Cc2c[nH]c3ccccc23)C(=O)N1)[C@@H](C)CC)C(N)=O [compound 71] | 0.005 | 2.3 | 0.06 | 12 | 0.05 |  |  |  |  |
| CCCC[C@@H]1NC(=O)[C@H](Cc2c[nH]c3ccccc23)NC(=O)[C@H](CCCCN)NC(=O)[C@H](CCC(N)=O)NC(=O)[C@@H](NC(=O)[C@@H](N)Cc2ccc(O)cc2)CSSC[C@@H]2NC(=O)[C@@H]3CSSC[C@@H](C(=O)N[C@@H](CCCNC(=N)N)C(=O)N[C@@H](CCCCN)C(=O)N[C@H](C(=O)N[C@H](C(N)=O)[C@@H](C)CC)[C@@H](C)CC)NC(=O)[C@H](Cc4c[nH]c5ccccc45)NC(=O)[C@H](Cc4cn(CCCOCCOCCOCCOCCOCCOCCOCCOCCOCCOCCN)nn4)NC(=O)[C@H](CCCCN)NC(=O)[C@H](CSSC[C@H](NC(=O)[C@H]([C@@H](C)O)NC(=O)[C@H](Cc4c[nH]c5ccccc45)NC1=O)C(=O)N[C@@H](CC(=O)O)C(=O)N[C@@H](CO)C(=O)N[C@@H](CCCCN)C(=O)N[C@@H](CCCNC(=N)N)C(=O)N[C@@H](C)C(=O)N3)NC(=O)[C@H](CCCNC(=N)N)NC(=O)[C@H](CC(C)C)NC(=O)CNC(=O)[C@H](CCC(=O)O)NC2=O [compound 265] |  |  |  |  |  | 4.8 | > 7 | > 7 | 5.6 |
| CC[C@H](C)[C@H](NC(=O)[C@@H](NC(=O)[C@H](CCCCN)NC(=O)[C@H](CCCNC(=N)N)NC(=O)[C@@H]1CSSC[C@@H]2NC(=O)[C@H](C)NC(=O)[C@H](CCCNC(=N)N)NC(=O)[C@H](CCCCN)NC(=O)[C@H](CO)NC(=O)[C@H](CC(=O)O)NC(=O)[C@@H]3CSSC[C@H](NC(=O)[C@H](CCCNC(=N)N)NC(=O)[C@H](CC(C)C)NC(=O)CNC(=O)[C@H](CCC(=O)O)NC(=O)[C@H](CSSC[C@H](NC(=O)[C@@H](N)Cc4ccc(O)cc4)C(=O)N[C@@H](CCC(N)=O)C(=O)N[C@@H](CCCNC(=N)N)C(=O)N[C@@H](Cc4c[nH]c5ccccc45)C(=O)N[C@@H](CCSC)C(=O)N[C@@H](Cc4c[nH]c5ccccc45)C(=O)N[C@@H]([C@@H](C)O)C(=O)N3)NC2=O)C(=O)N[C@@H](CCCCN)C(=O)N[C@@H](CC(C)C)C(=O)N[C@@H](Cc2c[nH]c3ccccc23)C(=O)N1)[C@@H](C)CC)C(N)=O [compound 92] | 0.014 | 2 | 0.16 | 11 | 0.07 |  |  |  |  |
| CC[C@H](C)[C@H](NC(=O)[C@@H](NC(=O)[C@H](CCCCN)NC(=O)[C@H](CCCNC(=N)N)NC(=O)[C@@H]1CSSC[C@@H]2NC(=O)[C@H](CCCNC(=N)N)NC(=O)[C@H](CCCNC(=N)N)NC(=O)[C@H](CCCCN)NC(=O)[C@H](CO)NC(=O)[C@H](CC(=O)O)NC(=O)[C@@H]3CSSC[C@H](NC(=O)[C@H](CCCNC(=N)N)NC(=O)[C@H](CC(C)C)NC(=O)CNC(=O)[C@H](CCC(=O)O)NC(=O)[C@H](CSSC[C@H](NC(=O)[C@@H](N)Cc4ccc(O)cc4)C(=O)N[C@@H](CCC(N)=O)C(=O)N[C@@H](CCCCN)C(=O)N[C@@H](Cc4c[nH]c5ccccc45)C(=O)N[C@@H](CCSC)C(=O)N[C@@H](Cc4c[nH]c5ccccc45)C(=O)N[C@@H]([C@@H](C)O)C(=O)N3)NC2=O)C(=O)N[C@@H](CCCCN)C(=O)N[C@@H](CC(C)C)C(=O)N[C@@H](Cc2c[nH]c3ccccc23)C(=O)N1)[C@@H](C)CC)C(N)=O [compound 100] | 0.008 | 1.4 | 0.08 | 11 | 0.04 |  |  |  |  |
| CC[C@H](C)[C@H](NC(=O)[C@@H](NC(=O)[C@H](CCCCN)NC(=O)[C@H](CCCNC(=N)N)NC(=O)[C@@H]1CSSC[C@@H]2NC(=O)[C@H](C)NC(=O)[C@H](CCCNC(=N)N)NC(=O)[C@H](CCCCN)NC(=O)[C@H](CO)NC(=O)[C@H](CC(=O)O)NC(=O)[C@@H]3CSSC[C@H](NC(=O)[C@H](CCCNC(=N)N)NC(=O)[C@H](CC(C)C)NC(=O)CNC(=O)[C@H](CCCCN)NC(=O)[C@H](CSSC[C@H](NC(=O)[C@@H](N)Cc4ccc(O)cc4)C(=O)N[C@@H](CCC(N)=O)C(=O)N[C@@H](CCCCN)C(=O)N[C@@H](Cc4c[nH]c5ccccc45)C(=O)N[C@@H](CCSC)C(=O)N[C@@H](Cc4c[nH]c5ccccc45)C(=O)N[C@@H]([C@@H](C)O)C(=O)N3)NC2=O)C(=O)N[C@@H](CCCCN)C(=O)N[C@@H](CC(C)C)C(=O)N[C@@H](Cc2c[nH]c3ccccc23)C(=O)N1)[C@@H](C)CC)C(N)=O [compound 81] | 0.01 | 0.89 | 0.05 | 5 | 0.03 |  |  |  |  |
| CC[C@H](C)[C@H](NC(=O)[C@H](CCCCN)NC(=O)[C@H](CCCNC(=N)N)NC(=O)[C@@H]1CSSC[C@@H]2NC(=O)[C@H](C)NC(=O)[C@H](CCCNC(=N)N)NC(=O)[C@H](CCCCN)NC(=O)[C@H](CO)NC(=O)[C@H](CC(=O)O)NC(=O)[C@@H]3CSSC[C@H](NC(=O)[C@H](CCCNC(=N)N)NC(=O)[C@H](CC(C)C)NC(=O)CNC(=O)[C@H](CCC(=O)O)NC(=O)[C@H](CSSC[C@H](NC(=O)[C@@H](N)Cc4ccc(O)cc4)C(=O)N[C@@H](CCC(N)=O)C(=O)N[C@@H](CCCCN)C(=O)N[C@@H](Cc4c[nH]c5ccccc45)C(=O)N[C@@H](CCSC)C(=O)N[C@@H](Cc4c[nH]c5ccccc45)C(=O)N[C@@H]([C@@H](C)O)C(=O)N3)NC2=O)C(=O)N[C@@H](CCCCN)C(=O)N[C@@H](CC(C)C)C(=O)N[C@@H](Cc2c[nH]c3ccccc23)C(=O)N1)C(=O)N[C@@H](C)C(N)=O [compound 24] | 0.053 | > 5 | 0.27 | 5 | 0.45 |  |  |  |  |
| CC[C@H](C)[C@H](NC(=O)[C@@H](NC(=O)[C@H](CCCCN)NC(=O)[C@H](CCCNC(=N)N)NC(=O)[C@@H]1CSSC[C@@H]2NC(=O)[C@H](C)NC(=O)[C@H](CCCNC(=N)N)NC(=O)[C@H](CCCCN)NC(=O)[C@H](CCCCN)NC(=O)[C@H](CC(=O)O)NC(=O)[C@@H]3CSSC[C@H](NC(=O)[C@H](CCCNC(=N)N)NC(=O)[C@H](CC(C)C)NC(=O)CNC(=O)[C@H](CCC(=O)O)NC(=O)[C@H](CSSC[C@H](NC(=O)[C@@H](N)Cc4ccc(O)cc4)C(=O)N[C@@H](CCC(N)=O)C(=O)N[C@@H](CCCCN)C(=O)N[C@@H](Cc4c[nH]c5ccccc45)C(=O)N[C@@H](CCSC)C(=O)N[C@@H](Cc4c[nH]c5ccccc45)C(=O)N[C@@H]([C@@H](C)O)C(=O)N3)NC2=O)C(=O)N[C@@H](CCCCN)C(=O)N[C@@H](CC(C)C)C(=O)N[C@@H](Cc2c[nH]c3ccccc23)C(=O)N1)[C@@H](C)CC)C(N)=O [compound 78] | 0.008 | 1.1 | 0.11 | 13 | 0.05 |  |  |  |  |
| CC[C@H](C)[C@H](NC(=O)[C@@H](NC(=O)[C@H](CCCCN)NC(=O)[C@H](CCCNC(=N)N)NC(=O)[C@@H]1CSSC[C@@H]2NC(=O)[C@H](C)NC(=O)[C@H](CCCNC(=N)N)NC(=O)[C@H](CCCCN)NC(=O)[C@H](CO)NC(=O)[C@H](CC(=O)O)NC(=O)[C@@H]3CSSC[C@H](NC(=O)[C@H](CCCNC(=N)N)NC(=O)[C@H](CC(C)C)NC(=O)CNC(=O)[C@H](CCC(=O)O)NC(=O)[C@H](CSSC[C@H](NC(=O)[C@@H](N)Cc4ccc(O)cc4)C(=O)N[C@@H](CCC(N)=O)C(=O)N[C@@H](CCCCN)C(=O)N[C@@H](Cc4c[nH]c5ccccc45)C(=O)N[C@@H](CCSC)C(=O)N[C@@H](Cc4c[nH]c5ccccc45)C(=O)N[C@@H](CCCCN)C(=O)N3)NC2=O)C(=O)N[C@@H](CCCCN)C(=O)N[C@@H](CC(C)C)C(=O)N[C@@H](Cc2c[nH]c3ccccc23)C(=O)N1)[C@@H](C)CC)C(N)=O [compound 76] | 0.031 | 3.7 | 0.1 | 3 | 0.1 |  |  |  |  |
